Laboratory results taken from patent publication US8796466B2, “Hepatitis C virus inhibitors” (Bristol-Myers Squibb Company, priority 2009, dated 2014).
Like-named read-outs stand apart in the source and are kept apart here.

Test system: HCV 1b genotype
Test: HCV Replicon assay (HCV 1b genotype)
Format: cell-based, Hepatitis C virus
Settings: Hepatitis C virus, HCV 1b genotype replicon
Description: An HCV Replicon assay was utilized in the present disclosure, and was prepared, conducted and validated as described in commonly owned PCT/US2006/022197 and in O'Boyle et. al. Antimicrob Agents Chemother. 2005 April; 49(4):1346-53. Assay methods incorporating luciferase reporters have also been used as described (Apath.com).
HCV-neo replicon cells and replicon cells containing mutations in the NS5A region were used to test the currently described family of compounds. The compounds were determined to have more than 10-fold less inhibitory activity on cells containing mutations than wild-type cells. Thus, the compounds of the present disclosure can be effective in inhibiting the function of the HCV NS5A protein and are understood to be as effective in combinations as previously described in application PCT/US2006/022197 and commonly owned WO/04014852. Further, the compounds of the present disclosure can be effective against the HCV 1b genotype. It should also be understood that the compounds of the present disclosure can inhibit multiple genotypes of HCV. […] In one embodiment, compounds of the present disclosure are inhibitory versus 1a, 1b, 2a, 2b, 3a, 4a, and 5a genotypes.

[1] = class symbol, read-out: Range (EC50 values against HCV 1b)
[2] = Effective 50% inhibitory concentration, read-out: 1b EC50

| Compound | EC50 [1] [nM] | EC50 [2] [nM] |
| --- | --- | --- |
| COC(=O)N[C@H](C(=O)N1[C@@H]2C[C@@H]2C[C@H]1c1ncc(-c2cccc(C#Cc3cccc(-c4cnc([C@@H]5C[C@H]6C[C@H]6N5C(=O)[C@@H](NC(=O)OC)C(C)C)[nH]4)c3)c2)[nH]1)C(C)C [Example J3, methyl ((1S)-1-(((1R,3S,5R)-3-(4-(3-((3-(2-((1R,3S,5R)-2-((2S)-2-((methoxycarbonyl)amino)-3-methylbutanoyl)-2-azabicyclo[3.1.0]hex-3-yl)-1H-imidazol-4-yl)phenyl)ethynyl)phenyl)-1H-imidazol-2-yl)-2-azabicyclo[3.1.0]hex-2-yl)carbonyl)-2-methylpropyl)carbamate] | 0.002 to 0.099 |  |
| COC(=O)N[C@H](C(=O)N1[C@@H]2C[C@@H]2C[C@H]1c1ncc(-c2cccc(C#Cc3cccc(-c4cnc([C@@H]5C[C@H]6C[C@H]6N5C(=O)[C@@H](NC(=O)OC)C5CCOCC5)[nH]4)c3)c2)[nH]1)C1CCOCC1 [Example J4, dimethyl (1,2-ethynediylbis(3,1-phenylene-1H-imidazole-4,2-diyl(1R,3S,5R)-2-azabicyclo[3.1.0]hexane-3,2-diyl((1S)-2-oxo-1-(tetrahydro-2H-pyran-4-yl)-2,1-ethanediyl)))biscarbamate] | 0.002 to 0.099 |  |
| COC(=O)N[C@H](C(=O)N1CCC[C@H]1c1nc(-c2ccc(C#Cc3ccc(-c4ccc(-c5c[nH]c([C@@H]6CCCN6C(=O)[C@@H](NC(=O)OC)C(C)C)n5)cc4)cc3)cc2)c[nH]1)C(C)C [Example J5, methyl ((1S)-1-(((2S)-2-(4-(4′-((4-(2-((2S)-1-((2S)-2-((methoxycarbonyl)amino)-3-methylbutanoyl)-2-pyrrolidinyl)-1H-imidazol-4-yl)phenyl)ethynyl)-4-biphenylyl)-1H-imidazol-2-yl)-1-pyrrolidinyl)carbonyl)-2-methylpropyl)carbamate] | 0.002 to 0.099 |  |
| COC(=O)N[C@H](C(=O)N1CCC[C@H]1c1nc(-c2ccc(C#Cc3ccc(-c4c[nH]c([C@@H]5CCCN5C(=O)[C@@H](NC(=O)OC)C(C)C)n4)cc3)cc2)c[nH]1)C(C)C [Example M1, methyl ((1S)-1-(((2S)-2-(4-(4-((4-(2-((2S)-1-((2S)-2-((methoxycarbonyl)amino)-3-methylbutanoyl)-2-pyrrolidinyl)-1H-imidazol-4-yl)phenyl)ethynyl)phenyl)-1H-imidazol-2-yl)-1-prrolidinyl)carbonyl)-2-methylpropyl)carbamate] | 0.002 to 0.099 |  |
| COC(=O)N[C@@H](C(=O)N1CCC[C@H]1c1nc(-c2ccc(C#Cc3ccc(-c4c[nH]c([C@@H]5CCCN5C(=O)[C@H](NC(=O)OC)c5ccccc5)n4)cc3)cc2)c[nH]1)c1ccccc1 [Example M2, dimethyl (1,2-ethynediylbis(4,1-phenylene-1H-imidazole-4,2-diyl(2S)-2,1-pyrrolidinediyl((1R)-2-oxo-1-phenyl-2,1-ethanediyl)))biscarbamate] | 0.1 to 0.99 | 0.24 |
| COC(=O)N[C@H](C(=O)N1CCC[C@H]1c1nc(-c2ccc(C#Cc3ccc(-c4c[nH]c([C@@H]5CCCN5C(=O)[C@@H](NC(=O)OC)C5CCOCC5)n4)cc3)cc2)c[nH]1)C1CCOCC1 [Example M2.1, dimethyl (1,2-ethynediylbis(4,1-phenylene-1H-imidazole-4,2-diyl(2S)-2,1-pyrrolidinediyl((1S)-2-oxo-1-(tetrahydro-2H-pyran-4-yl)-2,1-ethanediyl)))biscarbamate] | 0.002 to 0.099 |  |
| COC(=O)N[C@H](C(=O)N1[C@@H]2C[C@@H]2C[C@H]1c1nc(-c2ccc(C#Cc3ccc(-c4c[nH]c([C@@H]5C[C@H]6C[C@H]6N5C(=O)[C@@H](NC(=O)OC)C(C)C)n4)cc3)cc2)c[nH]1)C(C)C [Example M3, methyl ((1S)-1-(((1R,3S,5R)-3-(4-(4-((4-(2-((1R,3S,5R)-2-((2S)-2-((methoxycarbonyl)amino)-3-methylbutanoyl)-2-azabicyclo[3.1.0]hex-3-yl)-1H-imidazol-4-yl)phenyl)ethynyl)phenyl)-1H-imidazol-2-yl)-2-azabicyclo[3.1.0]hex-2-yl)carbonyl)-2-methylpropyl)carbamate] | 0.002 to 0.099 |  |
| CC[C@H](NC(=O)OC)C(=O)N1[C@@H]2C[C@@H]2C[C@H]1c1nc(-c2ccc(C#Cc3ccc(-c4c[nH]c([C@@H]5C[C@H]6C[C@H]6N5C(=O)[C@H](CC)NC(=O)OC)n4)cc3)cc2)c[nH]1 [Example M4, dimethyl (1,2-ethynediylbis(4,1-phenylene-1H-imidazole-4,2-diyl(1R,3S,5R)-2-azabicyclo[3.1.0]hexane-3,2-diyl((2S)-1-oxo-1,2-butanediyl)))biscarbamate] | 0.002 to 0.099 |  |
| COC(=O)N[C@H](C(=O)N1[C@@H]2C[C@@H]2C[C@H]1c1nc(-c2ccc(C#Cc3ccc(-c4c[nH]c([C@@H]5C[C@H]6C[C@H]6N5C(=O)[C@@H](NC(=O)OC)C5CCC5)n4)cc3)cc2)c[nH]1)C1CCC1 [Example M5, dimethyl (1,2-ethynediylbis(4,1-phenylene-1H-imidazole-4,2-diyl(1R,3S,5R)-2-azabicyclo[3.1.0]hexane-3,2-diyl((1S)-1-cyclobutyl-2-oxo-2,1-ethanediyl)))biscarbamate] | 0.1 to 0.99 |  |
| COC(=O)N[C@H](C(=O)N1[C@@H]2C[C@@H]2C[C@H]1c1nc(-c2ccc(C#Cc3ccc(-c4c[nH]c([C@@H]5C[C@H]6C[C@H]6N5C(=O)[C@@H](NC(=O)OC)C5CCOCC5)n4)cc3)cc2)c[nH]1)C1CCOCC1 [Example M6, dimethyl (1,2-ethynediylbis(4,1-phenylene-1H-imidazole-4,2-diyl(1R,3S,5R)-2-azabicyclo[3.1.0]hexane-3,2-diyl((1S)-2-oxo-1-(tetrahydro-2H-pyran-4-yl)-2,1-ethanediyl)))biscarbamate] | 0.002 to 0.099 | 0.0033 |
| COC(=O)N[C@H](C(=O)N1[C@@H]2C[C@@H]2C[C@H]1c1nc(-c2ccc(C#Cc3ccc(-c4c[nH]c([C@@H]5C[C@H]6C[C@H]6N5C(=O)[C@@H](NC(=O)OC)C5CCOCC5)n4)cc3)cc2)c[nH]1)C(C)C [Example M7, methyl ((1S)-1-(((1R,3S,5R)-3-(4-(4-((4-(2-((1R,3S,5R)-2-((2S)-2-((methoxycarbonyl)amino)-2-(tetrahydro-2H-pyran-4-yl)acetyl)-2-azabicyclo[3.1.0]hex-3-yl)-1H-imidazol-4-yl)phenyl)ethynyl)phenyl)-1H-imidazol-2-yl)-2-azabicyclo[3.1.0]hex-2-yl)carbonyl)-2-methylpropyl)carbamate] | 0.002 to 0.099 |  |
| COC(=O)N[C@H](C(=O)N1[C@@H]2C[C@@H]2C[C@H]1c1nc(-c2ccc(C#Cc3ccc(-c4[nH]c([C@@H]5C[C@H]6C[C@H]6N5C(=O)[C@@H](NC(=O)OC)C(C)C)nc4Cl)cc3)cc2)c[nH]1)C(C)C [Example M8, methyl ((1S)-1-(((1R,3S,5R)-3-(4-chloro-5-(4-((4-(2-((1R,3S,5R)-2-((2S)-2-((methoxycarbonyl)amino)-3-methylbutanoyl)-2-azabicyclo[3.1.0]hex-3-yl)-1H-imidazol-4-yl)phenyl)ethynyl)phenyl)-1H-imidazol-2-yl)-2-azabicyclo[3.1.0]hex-2-yl)carbonyl)-2-methylpropyl)carbamate] | 0.002 to 0.099 |  |
| COC(=O)N[C@H](C(=O)N1[C@@H]2C[C@@H]2C[C@H]1c1nc(Cl)c(-c2ccc(C#Cc3ccc(-c4[nH]c([C@@H]5C[C@H]6C[C@H]6N5C(=O)[C@@H](NC(=O)OC)C(C)C)nc4Cl)cc3)cc2)[nH]1)C(C)C [Example M9, methyl ((1S)-1-(((1R,3S,5R)-3-(4-chloro-5-(4-((4-(4-chloro-2-((1R,3S,5R)-2-((2S)-2-((methoxycarbonyl)amino)-3-methylbutanoyl)-2-azabicyclo[3.1.0]hex-3-yl)-1H-imidazol-5-yl)phenyl)ethynyl)phenyl)-1H-imidazol-2-yl)-2-azabicyclo[3.1.0]hex-2-yl)carbonyl)-2-methylpropyl)carbamate] | 0.002 to 0.099 |  |
| COC(=O)N[C@H](C(=O)N1[C@@H]2C[C@@H]2C[C@H]1c1nc(-c2ccc(C#Cc3ccc(-c4[nH]c([C@@H]5C[C@H]6C[C@H]6N5C(=O)[C@@H](NC(=O)OC)C5CCOCC5)nc4Cl)cc3)cc2)c[nH]1)C1CCOCC1 [Example M9.1, methyl ((1S)-2-((1R,3S,5R)-3-(4-(4-((4-(4-chloro-2-((1R,3S,5R)-2-((2S)-2-((methoxycarbonyl)amino)-2-(tetrahydro-2H-pyran-4-yl)acetyl)-2-azabicyclo[3.1.0]hex-3-yl)-1H-imidazol-5-yl)phenyl)ethynyl)phenyl)-1H-imidazol-2-yl)-2-azabicyclo[3.1.0]hex-2-yl)-2-oxo-1-(tetrahydro-2H-pyran-4-yl)ethyl)carbamate] | 0.002 to 0.099 |  |
| COC(=O)N[C@H](C(=O)N1[C@@H]2C[C@@H]2C[C@H]1c1nc(Cl)c(-c2ccc(C#Cc3ccc(-c4[nH]c([C@@H]5C[C@H]6C[C@H]6N5C(=O)[C@@H](NC(=O)OC)C5CCOCC5)nc4Cl)cc3)cc2)[nH]1)C1CCOCC1 [Example M9.2, dimethyl (1,2-ethynediylbis(4,1-phenylene(4-chloro-1H-imidazole-5,2-diyl)(1R,3S,5R)-2-azabicyclo[3.1.0]hexane-3,2-diyl((1S)-2-oxo-1-(tetrahydro-2H-pyran-4-yl)-2,1-ethanediyl)))biscarbamate] | 0.002 to 0.099 |  |
| COC(=O)N[C@H](C(=O)N1[C@@H]2C[C@@H]2C[C@H]1c1ncc(-c2ccc([C@H]3C[C@@H]3c3ccc(-c4cnc([C@@H]5C[C@H]6C[C@H]6N5C(=O)[C@@H](NC(=O)OC)C(C)C)[nH]4)cc3)cc2)[nH]1)C(C)C [Example M9.3] | 0.002 to 0.099 |  |
